Patent US20180353568A1 (priority 2015, published 2018)
pIC50: −log10 of the molar value. “Also recorded” adds a separate entry of the source.

Experiments:
[1] = test system: envelope protein GP of Ebola virus (HIV-luc/EBOV-GP pseudotype virus); type: cell-based
[2] = test system: envelope G protein of vesicular stomatitis virus, VSV-G (HIV-luc/VSV-G pseudotype virus); type: cell-based
[3] = test system: HIV-luc/Zaire EBOV-GP2014 pseudotype virus; type: cell-based, Ebola virus
[4] = test system: HIV-luc/Zaire EBOV-GP2014 pseudotype virus; type: cell-based, Ebola virus; remark: listed apart in the source
[5] = test system: HIV-luc/Zaire EBOV-GP2014 pseudotype virus; type: cell-based, Ebola virus; remark: listed apart in the source
[6] = test system: HIV-luc/Zaire EBOV-GP2014 pseudotype virus; type: cell-based, Ebola virus; remark: listed apart in the source

Substance: teicoplanin
- inhibitory effect on the envelope protein of Ebola virus, EBOV-GP (entry) [1]: can inhibit the entry of Ebola virus; also recorded: good inhibitory effect
- pIC50 ([1]; read-out: IC50 of teicoplanin (inhibition of Ebola pseudovirus infecting 293T cells)): 6.70
- inhibitory effect on the envelope G protein of vesicular stomatitis virus, VSV-G [2]: no inhibitory effect
- inhibitory effect on virus in A549 cells [3]: good inhibitory effect
- inhibitory effect on virus in Hela cells [4]: good inhibitory effect
- inhibitory effect on virus in THP-1 cells [5]: good inhibitory effect
- inhibitory effect on virus in HUVECs [6]: good inhibitory effect
- cytotoxicity in 293T cells (293T cells): non-cytotoxic
- toxicity (FIG. 3, CC50 test) (293T cells): low
